Assay results as given in patent US20250195521A1 (Revolution Medicines, Inc., priority 2020, published 2025).

The compounds below were run on K-Ras G12C (NCI-H358 cells) (assay: Potency assay: pERK in NCI-H358 cells). Conditions: Homo sapiens, NCI-H358, 4 h, read-out: pERK EC50 (H358 KRAS G12C).
Type: cell-based, human
Method: The purpose of this assay is to measure the ability of test compounds to inhibit K-Ras in cells. […] This procedure measures a decrease in cellular pERK in response to test compounds. The procedure described below in NCI-H358 cells is applicable to K-Ras G12C.
Note: This protocol may be executed substituting other cell lines to characterize inhibitors of other RAS variants, including, for example, AsPC-1 (K-Ras G12D), Capan-1 (K-Ras G12V), or NCI-H1355 (K-Ras G13C).
NCI-H358 cells were grown and maintained using media and procedures recommended by the ATCC. On the day prior to compound addition, cells were plated in 384-well cell culture plates (40 μl/well) and grown overnight in a 37° C., 5% CO2 incubator. Test compounds were prepared in 10, 3-fold dilutions in DMSO, with a high concentration of 10 mM. On the day of assay, 40 nL of test compound was added to each well of cell culture plate using an Echo550 liquid handler (LabCyte®). Concentrations of test compound were tested in duplicate. After compound addition, cells were incubated 4 hours at 37° C., 5% CO2. Following incubation, culture medium was removed and cells were washed once with phosphate buffered saline.
In some experiments, cellular pERK level was determined using the AlphaLISA SureFire Ultra p-ERK1/2 Assay Kit (PerkinElmer). Cells were lysed in 25 μL lysis buffer, with shaking at 600 RPM at room temperature. […] After a 2-hour incubation in the dark, 5 μL donor mix was added, plate was sealed, and incubated 2 hours at room temperature. Signal was read on an Envision plate reader (PerkinElmer) using standard AlphaLISA settings. Analysis of raw data was carried out in Excel (Microsoft) and Prism (GraphPad). Signal was plotted vs. the decadal logarithm of compound concentration, and IC50 was determined by fitting a 4-parameter sigmoidal concentration response model.
In other experiments, cellular pERK was determined by In-Cell Western. […] Fixed cells were washed 4 times for 5 minutes with TBS containing 0.1% Triton X-100 (TBST) and then blocked with 100 μL Odyssey blocking buffer (LI-COR) for 60 minutes at room temperature. Primary antibody (PERK, CST-4370, Cell Signaling Technology) was diluted 1:200 in blocking buffer, and 50 μL was added to each well and incubated overnight at 4° C. Cells were washed 4 times for 5 minutes with TBST. Secondary antibody (IR-800CW rabbit, LI-COR, diluted 1:800) and DNA stain DRAQ5 (LI-COR, diluted 1:2000) were added and incubated 1-2 hours at room temperature. Cells were washed 4 times for 5 minutes with TBST. Plates were scanned on a Li—COR Odyssey CLx Imager. Analysis of raw data was carried out in Excel (Microsoft) and Prism (GraphPad). Signal was plotted vs. the decadal logarithm of compound concentration, and IC50 was determined by fitting a 4-parameter sigmoidal concentration response model.
For `CCn1c(-c2cccnc2[C@H](C)OC)c2c3cc(ccc31)-c1cc(O)cc(c1)C[C@H](NC(=O)[C@H](C(C)C)N(C)C(=O)[C@@H]1CC1(F)F)C(=O)N1CCC[C@H](N1)C(=O)OCC(C)(C)C2` [Compound A167], the EC50 was < 5 µM.

Same assay, conditions: Homo sapiens; NCI-H358 cells, 4 hours; read-out: pERK EC50 (H358 KRAS G12C)
`CCn1c(-c2cccnc2[C@H](C)OC)c2c3cc(ccc31)-c1cc(O)cc(c1)C[C@H](NC(=O)[C@H](C(C)C)N(C)C(=O)[C@@H]1CCNC1)C(=O)N1CCC[C@H](N1)C(=O)OCC(C)(C)C2` [Compound A129] was tested, and the EC50 was < 5 µM.
For `CCn1c(-c2cccnc2[C@H](C)OC)c2c3cc(ccc31)-c1cc(O)cc(c1)C[C@H](NC(=O)[C@H](C(C)C)N(C)C(=O)C1CC3CC1CN3)C(=O)N1CCC[C@H](N1)C(=O)OCC(C)(C)C2` (stereo partly drawn) [Compound A133], the EC50 was < 5 µM.
With `CCn1c(-c2cccnc2[C@H](C)OC)c2c3cc(ccc31)-c1csc(n1)C[C@H](NC(=O)[C@H](C1CCCC1)N(C)C(C)=O)C(=O)N1CCC[C@H](N1)C(=O)OCC(C)(C)C2` [Compound A141] the EC50 was < 5 µM.
For `CCn1c(-c2cccnc2[C@H](C)OC)c2c3cc(ccc31)-c1cc(O)cc(c1)C[C@H](NC(=O)[C@H](C(C)C)N(C)C(=O)C1CC13CCNC3)C(=O)N1CCC[C@H](N1)C(=O)OCC(C)(C)C2` (stereo partly drawn) [Compound A148], the EC50 was < 5 µM.
In the case of `C=C[C@@H]1C[C@]1(N)C(=O)N(C)[C@H](C(=O)N[C@H]1Cc2cc(O)cc(c2)-c2ccc3c(c2)c(c(-c2cccnc2[C@H](C)OC)n3CC)CC(C)(C)COC(=O)[C@@H]2CCCN(N2)C1=O)C(C)C` [Compound A149], the EC50 is reported as < 5 µM.
In the case of `CCn1c(-c2cccnc2[C@H](C)OC)c2c3cc(ccc31)-c1cc(O)cc(c1)C[C@H](NC(=O)[C@H](C(C)C)N(C)C(=O)C1(C#N)CC1)C(=O)N1CCC[C@H](N1)C(=O)OCC(C)(C)C2` [Compound A159], the EC50 is reported as < 5 µM.
With `CCn1c(-c2cccnc2[C@H](C)OC)c2c3cc(ccc31)-c1cc(O)cc(c1)C[C@H](NC(=O)[C@H](C(C)C)N(C)C(=O)[C@H]1CC1(F)F)C(=O)N1CCC[C@H](N1)C(=O)OCC(C)(C)C2` [Compound A166] the EC50 was < 5 µM.
With `CCn1c(-c2cccnc2[C@H](C)OC)c2c3cc(ccc31)-c1cc(O)cc(c1)C[C@H](NC(=O)[C@H](C(C)C)N(C)C(=O)C1Cc3cccnc3C1)C(=O)N1CCC[C@H](N1)C(=O)OCC(C)(C)C2` (stereo partly drawn) [Compound A250] the EC50 was < 5 µM.
With `CCn1c(-c2cnccc2COC)c2c3cc(ccc31)-c1cc(O)cc(c1)C[C@H](NC(=O)C1CCCC1C(F)F)C(=O)N1CCC[C@H](N1)C(=O)OCC(C)(C)C2` (stereo partly drawn) [Compound A261] the EC50 was < 5 µM.
`CCN1C[C@@H](C(=O)N(C)[C@H](C(=O)N[C@H]2Cc3cc(O)cc(c3)-c3ccc4c(c3)c(c(-c3cnccc3COC)n4CC)CC(C)(C)COC(=O)[C@@H]3CCCN(N3)C2=O)C(C)C)CC1=O` [Compound A262] was tested, and the EC50 was < 5 µM.
In the case of `CCn1c(-c2cccnc2[C@H](C)OC)c2c3cc(ccc31)-c1csc(n1)C[C@H](NC(=O)N1CCCC1)C(=O)N1CCC[C@H](N1)C(=O)OCC(C)(C)C2` [Compound A267], the EC50 is reported as < 5 µM.
In the case of `CCn1c(-c2cccnc2[C@H](C)OC)c2c3cc(ccc31)-c1csc(n1)C[C@H](NC(=O)[C@H](C(C)C)N(C)C(=O)N1CC[C@@H]1C(=O)NC)C(=O)N1CCC[C@H](N1)C(=O)OCC(C)(C)C2` [Compound A281], the EC50 is reported as < 5 µM.
With `CCn1c(-c2cccnc2[C@H](C)OC)c2c3cc(ccc31)-c1csc(n1)C[C@H](NC(=O)[C@H](C(C)C)N(C)C(=O)N1CCOC3(CN(C)C3)C1)C(=O)N1CCC[C@H](N1)C(=O)OCC(C)(C)C2` [Compound A294] the EC50 was < 5 µM.
`CCn1c(-c2cccnc2[C@H](C)OC)c2c3cc(ccc31)-c1csc(n1)C[C@H](NC(=O)[C@H](C(C)C)N(C)C(=O)N1CC(n3nc(C)cc3C)C1)C(=O)N1CCC[C@H](N1)C(=O)OCC(C)(C)C2` [Compound A297] was tested, and the EC50 was < 5 µM.
For `CCn1c(-c2cccnc2[C@H](C)OC)c2c3cc(ccc31)-c1csc(n1)C[C@H](NC(=O)[C@H](C(C)C)N(C)C(=O)N1CC(OC(F)F)C1)C(=O)N1CCC[C@H](N1)C(=O)OCC(C)(C)C2` [Compound A302], the EC50 was < 5 µM.
`CCn1c(-c2cccnc2[C@H](C)OC)c2c3cc(ccc31)-c1csc(n1)C[C@H](NC(=O)[C@H](C(C)C)N(C)C(=O)N1CCN(C(=O)CO)CC1)C(=O)N1CCC[C@H](N1)C(=O)OCC(C)(C)C2` [Compound A306] was tested, and the EC50 was < 5 µM.
For `CCn1c(-c2cccnc2[C@H](C)OC)c2c3cc(ccc31)-c1csc(n1)C[C@H](NC(=O)[C@H](C(C)C)N(C)C(=O)N1CCO[C@@H](C)C1)C(=O)N1CCC[C@H](N1)C(=O)OCC(C)(C)C2` [Compound A309], the EC50 was < 5 µM.
In the case of `CCN(CC)C1CN(C(=O)N(C)[C@H](C(=O)N[C@H]2Cc3nc(cs3)-c3ccc4c(c3)c(c(-c3cccnc3[C@H](C)OC)n4CC)CC(C)(C)COC(=O)[C@@H]3CCCN(N3)C2=O)C(C)C)C1` [Compound A319], the EC50 is reported as < 5 µM.
In the case of `CCn1c(-c2cccnc2[C@H](C)OC)c2c3cc(ccc31)-c1csc(n1)C[C@H](NC(=O)[C@H](C(C)C)N(C)C(=O)N(C)CC(C)C)C(=O)N1CCC[C@H](N1)C(=O)OCC(C)(C)C2` [Compound A332], the EC50 is reported as < 5 µM.
In the case of `CCn1c(-c2cccnc2[C@H](C)OC)c2c3cc(ccc31)-c1csc(n1)C[C@H](NC(=O)[C@H](C(C)C)N(C)C(=O)N1CC(NC)C1)C(=O)N1CCC[C@H](N1)C(=O)OCC(C)(C)C2` [Compound A337], the EC50 is reported as < 5 µM.
In the case of `CCN(C(=O)N(C)[C@H](C(=O)N[C@H]1Cc2nc(cs2)-c2ccc3c(c2)c(c(-c2cccnc2[C@H](C)OC)n3CC)CC(C)(C)COC(=O)[C@@H]2CCCN(N2)C1=O)C(C)C)C1CC1` [Compound A352], the EC50 is reported as < 5 µM.
In the case of `CCn1c(-c2cccnc2[C@H](C)OC)c2c3cc(ccc31)-c1csc(n1)C[C@H](NC(=O)[C@H](C(C)C)N(C)C(=O)N(C)C1CC1)C(=O)N1CCC[C@H](N1)C(=O)OCC(C)(C)C2` [Compound A353], the EC50 is reported as < 5 µM.
In the case of `CCn1c(-c2cccnc2[C@H](C)OC)c2c3cc(ccc31)-c1csc(n1)C[C@H](NC(=O)[C@H](C(C)C)N(C)C(=O)N1CC(CO)C1)C(=O)N1CCC[C@H](N1)C(=O)OCC(C)(C)C2` [Compound A356], the EC50 is reported as < 5 µM.
With `CCn1c(-c2cccnc2[C@H](C)OC)c2c3cc(ccc31)-c1csc(n1)C[C@H](NC(=O)[C@H]1CCO1)C(=O)N1CCC[C@H](N1)C(=O)OCC(C)(C)C2` [Compound A360] the EC50 was < 5 µM.
`CCn1c(-c2cccnc2[C@H](C)OC)c2c3cc(ccc31)-c1cc(O)cc(c1)C[C@H](NC(=O)[C@H](C(C)C)N(C)C(=O)[C@H]1CC[C@@H](CN(C)C)O1)C(=O)N1CCC[C@H](N1)C(=O)OCC(C)(C)C2` [Compound A397] was tested, and the EC50 was < 5 µM.
With `CCn1c(-c2cccnc2[C@H](C)OC)c2c3cc(ccc31)-c1cc(O)cc(c1)C[C@H](NC(=O)[C@H](C(C)C)N(C)C(=O)[C@@H]1OC[C@@H]3CCC[C@@H]31)C(=O)N1CCC[C@H](N1)C(=O)OCC(C)(C)C2` [Compound A407] the EC50 was < 5 µM.
`CCn1c(-c2cccnc2[C@H](C)OC)c2c3cc(ccc31)-c1csc(n1)C[C@H](NC(=O)[C@H](C(C)C)N(C)C(=O)N1CCN(C(=O)C3(N(C)C)CC3)CC1)C(=O)N1CCC[C@H](N1)C(=O)OCC(C)(C)C2` [Compound A443] was tested, and the EC50 was < 5 µM.
In the case of `CCn1c(-c2cccnc2[C@H](C)OC)c2c3cc(ccc31)-c1csc(n1)C[C@H](NC(=O)[C@H](C(C)C)N(C)C(=O)N1CC(N)(C#N)C1)C(=O)N1CCC[C@H](N1)C(=O)OCC(C)(C)C2` [Compound A456], the EC50 is reported as < 5 µM.
`CCn1c(-c2cc(N3CCN(C)CC3)cnc2[C@H](C)OC)c2c3cc(ccc31)-c1csc(n1)C[C@H](NC(=O)[C@H](C(C)C)N(C)C(=O)N1CC(N(C)C)C1)C(=O)N1CCC[C@H](N1)C(=O)OCC(C)(C)C2` [Compound A477] was tested, and the EC50 was < 5 µM.
`CCn1c(-c2cccnc2[C@H](C)OC)c2c3cc(ccc31)-c1csc(n1)C[C@H](NC(=O)[C@H](C(C)C)N(C)C(=O)N1CCCC13CCN(C)CC3)C(=O)N1CCC[C@H](N1)C(=O)OCC(C)(C)C2` [Compound A498] was tested, and the EC50 was < 5 µM.
With `CCn1c(-c2cccnc2[C@H](C)OC)c2c3cc(ccc31)-c1csc(n1)C[C@H](NC(=O)[C@H](C(C)C)N(C)C(=O)N1CC3(CN(C)CCO3)C1)C(=O)N1CCC[C@H](N1)C(=O)OCC(C)(C)C2` [Compound A499] the EC50 was < 5 µM.
`CCn1c(-c2cccnc2[C@H](C)OC)c2c3cc(ccc31)-c1csc(n1)C[C@H](NC(=O)[C@H](C(C)C)N(C)C(=O)N1CCC[C@H]1CN(C)C)C(=O)N1CCC[C@H](N1)C(=O)OCC(C)(C)C2` [Compound A519] was tested, and the EC50 was < 5 µM.
